Measurements published in ChEMBL document CHEMBL5550200, “Back-Pocket Optimization of 2-Aminopyrimidine-Based Macrocycles Leads to Potent EPHA2/GAK Kinase Inhibitors” (J Med Chem, 2024).
Values after ≈ are worked out from the molar mass of the structure shown.

Tests used:
dengue virus type 2 = assay: Antiviral activity against DENV-2 New Guinea C infected in human Huh-7 cells assessed as reduction in virus induced cytopathic effect preincubated with cells for 1 hr followed by viral infection and measured after 45 to 48 hrs by luciferase assay; assay type: functional, organism-based; settings: for EC90: time 45-48 hrs
[1] = biological target: T1, Vascular endothelial growth factor receptor 1 (Homo sapiens, UniProt P17948); assay: Induction of stabilization of recombinant FLT1 (unknown origin) assessed as change in melting temperature by differential scanning fluorimetry assay
[2] = Metabolic stability in Sprague-Dawley rat liver microsomes assessed as half life at 10 uM preincubated for 5 mins followed by NADPH regenerating system measured upto 60 min by HPLC analysis; assay type: ADME, Microsome; settings: time < 65 min
[3] = biological target: Ephrin type-A receptor 7 (Homo sapiens) (UniProt Q15375); assay: Induction of stabilization of recombinant EPHA7 (unknown origin) assessed as change in melting temperature by differential scanning fluorimetry assay
Chain of Ephrin type-A receptor 7 (Homo sapiens) (Q15375 28-998 limits assumed): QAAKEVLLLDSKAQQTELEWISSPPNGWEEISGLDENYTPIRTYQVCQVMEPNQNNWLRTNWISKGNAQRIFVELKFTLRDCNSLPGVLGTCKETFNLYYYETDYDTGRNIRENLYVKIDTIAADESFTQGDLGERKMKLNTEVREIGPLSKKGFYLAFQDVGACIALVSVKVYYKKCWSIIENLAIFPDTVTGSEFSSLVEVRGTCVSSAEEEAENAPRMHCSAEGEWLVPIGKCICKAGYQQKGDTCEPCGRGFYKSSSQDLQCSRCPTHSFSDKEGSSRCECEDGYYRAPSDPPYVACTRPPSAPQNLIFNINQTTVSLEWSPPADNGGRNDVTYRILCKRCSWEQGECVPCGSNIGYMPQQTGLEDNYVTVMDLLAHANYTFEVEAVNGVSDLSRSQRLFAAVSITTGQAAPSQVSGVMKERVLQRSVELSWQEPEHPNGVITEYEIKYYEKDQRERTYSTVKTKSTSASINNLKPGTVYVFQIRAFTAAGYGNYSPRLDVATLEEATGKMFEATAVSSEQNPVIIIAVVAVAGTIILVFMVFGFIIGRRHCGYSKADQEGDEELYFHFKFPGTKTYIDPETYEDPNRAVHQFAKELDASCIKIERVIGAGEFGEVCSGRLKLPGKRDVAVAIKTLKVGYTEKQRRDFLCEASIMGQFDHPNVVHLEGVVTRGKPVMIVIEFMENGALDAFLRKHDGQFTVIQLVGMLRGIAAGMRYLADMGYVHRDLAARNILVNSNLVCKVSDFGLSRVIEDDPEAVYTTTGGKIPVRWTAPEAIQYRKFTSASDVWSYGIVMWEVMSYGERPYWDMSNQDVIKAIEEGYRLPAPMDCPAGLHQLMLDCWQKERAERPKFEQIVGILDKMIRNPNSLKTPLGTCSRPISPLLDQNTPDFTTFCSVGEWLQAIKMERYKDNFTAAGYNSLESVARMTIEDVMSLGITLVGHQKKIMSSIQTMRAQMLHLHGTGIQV

[4] = biological target: Fibroblast growth factor receptor 2 (Homo sapiens) (UniProt P21802)
Chain of Fibroblast growth factor receptor 2 (Homo sapiens) (P21802 22-821 limits assumed): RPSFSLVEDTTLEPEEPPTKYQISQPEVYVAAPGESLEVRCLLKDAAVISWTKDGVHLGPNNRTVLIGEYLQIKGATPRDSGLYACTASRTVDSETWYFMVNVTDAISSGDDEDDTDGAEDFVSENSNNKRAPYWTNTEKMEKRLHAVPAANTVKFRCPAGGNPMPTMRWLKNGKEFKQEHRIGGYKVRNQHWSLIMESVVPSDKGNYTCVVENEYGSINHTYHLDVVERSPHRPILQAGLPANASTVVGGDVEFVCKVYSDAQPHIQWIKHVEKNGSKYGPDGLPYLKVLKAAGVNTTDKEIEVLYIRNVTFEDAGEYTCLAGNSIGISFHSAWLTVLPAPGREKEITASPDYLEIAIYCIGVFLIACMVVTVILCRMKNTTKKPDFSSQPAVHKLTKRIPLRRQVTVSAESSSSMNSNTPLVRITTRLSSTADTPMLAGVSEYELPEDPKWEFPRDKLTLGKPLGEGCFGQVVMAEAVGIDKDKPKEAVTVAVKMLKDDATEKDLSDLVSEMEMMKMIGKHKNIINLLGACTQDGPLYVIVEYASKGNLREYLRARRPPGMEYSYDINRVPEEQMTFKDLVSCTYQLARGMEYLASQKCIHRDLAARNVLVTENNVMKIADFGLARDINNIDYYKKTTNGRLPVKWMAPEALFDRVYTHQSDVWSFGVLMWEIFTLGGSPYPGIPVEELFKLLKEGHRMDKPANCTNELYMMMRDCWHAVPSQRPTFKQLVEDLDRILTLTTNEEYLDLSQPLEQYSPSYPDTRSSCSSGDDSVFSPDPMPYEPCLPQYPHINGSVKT
Description: Induction of stabilization of recombinant FGFR2 (unknown origin) assessed as change in melting temperature by differential scanning fluorimetry assay

[5] = biological target: T2, Ephrin type-B receptor 1 (Homo sapiens) (UniProt P54762); assay: Induction of stabilization of recombinant EPHB1 (unknown origin) assessed as change in melting temperature by differential scanning fluorimetry assay
T2 sequence (whole entry): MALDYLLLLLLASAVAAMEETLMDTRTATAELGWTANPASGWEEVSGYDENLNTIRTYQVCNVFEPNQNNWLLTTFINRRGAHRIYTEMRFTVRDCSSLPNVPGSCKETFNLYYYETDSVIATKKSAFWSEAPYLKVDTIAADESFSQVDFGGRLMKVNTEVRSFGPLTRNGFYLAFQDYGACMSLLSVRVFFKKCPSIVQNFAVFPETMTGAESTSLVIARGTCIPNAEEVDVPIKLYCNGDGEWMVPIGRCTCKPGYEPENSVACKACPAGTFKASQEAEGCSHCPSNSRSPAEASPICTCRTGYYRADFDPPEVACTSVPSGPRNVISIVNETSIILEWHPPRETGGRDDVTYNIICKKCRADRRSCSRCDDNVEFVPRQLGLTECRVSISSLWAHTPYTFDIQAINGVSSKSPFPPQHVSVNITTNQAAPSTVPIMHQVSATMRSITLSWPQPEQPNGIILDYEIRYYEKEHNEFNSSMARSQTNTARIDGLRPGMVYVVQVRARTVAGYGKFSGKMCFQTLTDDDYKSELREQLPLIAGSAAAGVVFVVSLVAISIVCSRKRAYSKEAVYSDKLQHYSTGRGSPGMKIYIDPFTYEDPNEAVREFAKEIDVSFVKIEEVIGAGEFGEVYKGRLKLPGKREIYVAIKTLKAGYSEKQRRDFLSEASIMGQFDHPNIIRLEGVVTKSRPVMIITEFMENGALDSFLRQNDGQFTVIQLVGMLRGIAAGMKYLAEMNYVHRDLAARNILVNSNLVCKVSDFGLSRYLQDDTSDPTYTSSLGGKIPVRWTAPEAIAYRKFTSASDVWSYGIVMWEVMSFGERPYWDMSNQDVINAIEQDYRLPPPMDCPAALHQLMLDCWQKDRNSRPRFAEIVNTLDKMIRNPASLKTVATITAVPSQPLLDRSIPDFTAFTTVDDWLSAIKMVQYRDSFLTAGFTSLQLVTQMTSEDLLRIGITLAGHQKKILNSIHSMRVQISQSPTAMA

Ephrin type-A receptor 4 [6] = biological target: T3, Ephrin type-A receptor 4 (Homo sapiens, UniProt P54764); assay: Induction of stabilization of recombinant EPHA4 (unknown origin) assessed as change in melting temperature by differential scanning fluorimetry assay
T3 sequence (P54764 whole entry): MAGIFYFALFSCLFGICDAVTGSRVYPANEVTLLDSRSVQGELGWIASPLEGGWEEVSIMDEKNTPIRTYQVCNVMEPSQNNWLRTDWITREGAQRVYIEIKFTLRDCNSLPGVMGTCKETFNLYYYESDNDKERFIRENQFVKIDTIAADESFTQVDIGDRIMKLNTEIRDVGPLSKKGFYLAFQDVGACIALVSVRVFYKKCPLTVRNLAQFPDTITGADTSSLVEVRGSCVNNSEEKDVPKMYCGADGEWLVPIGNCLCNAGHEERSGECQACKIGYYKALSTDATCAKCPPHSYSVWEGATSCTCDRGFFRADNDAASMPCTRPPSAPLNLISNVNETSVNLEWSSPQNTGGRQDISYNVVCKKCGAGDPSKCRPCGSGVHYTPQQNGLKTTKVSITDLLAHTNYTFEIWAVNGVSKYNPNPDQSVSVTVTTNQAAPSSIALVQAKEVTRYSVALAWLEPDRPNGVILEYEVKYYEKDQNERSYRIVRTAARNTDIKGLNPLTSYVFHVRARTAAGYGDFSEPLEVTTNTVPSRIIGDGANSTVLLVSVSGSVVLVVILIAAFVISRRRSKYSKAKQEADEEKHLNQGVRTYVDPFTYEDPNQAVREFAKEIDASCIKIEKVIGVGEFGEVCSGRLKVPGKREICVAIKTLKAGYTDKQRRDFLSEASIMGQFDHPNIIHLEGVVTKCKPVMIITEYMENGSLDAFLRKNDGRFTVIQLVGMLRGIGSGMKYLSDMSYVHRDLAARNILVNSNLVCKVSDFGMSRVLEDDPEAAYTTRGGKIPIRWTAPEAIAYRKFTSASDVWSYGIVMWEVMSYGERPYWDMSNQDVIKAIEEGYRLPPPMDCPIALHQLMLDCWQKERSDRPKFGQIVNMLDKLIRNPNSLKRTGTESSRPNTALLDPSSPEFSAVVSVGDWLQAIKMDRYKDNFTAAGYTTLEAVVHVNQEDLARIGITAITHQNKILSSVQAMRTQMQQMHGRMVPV

Huh-7 = assay: Cytotoxicity against human Huh-7 cells assessed as reduction in cell viability by alamar blue reagent based analysis; assay type: functional
[7] = biological target: T4, Ephrin type-B receptor 3 (Homo sapiens) (UniProt P54753); assay: Induction of stabilization of recombinant EPHB3 (unknown origin) assessed as change in melting temperature by differential scanning fluorimetry assay
T4 sequence (whole entry): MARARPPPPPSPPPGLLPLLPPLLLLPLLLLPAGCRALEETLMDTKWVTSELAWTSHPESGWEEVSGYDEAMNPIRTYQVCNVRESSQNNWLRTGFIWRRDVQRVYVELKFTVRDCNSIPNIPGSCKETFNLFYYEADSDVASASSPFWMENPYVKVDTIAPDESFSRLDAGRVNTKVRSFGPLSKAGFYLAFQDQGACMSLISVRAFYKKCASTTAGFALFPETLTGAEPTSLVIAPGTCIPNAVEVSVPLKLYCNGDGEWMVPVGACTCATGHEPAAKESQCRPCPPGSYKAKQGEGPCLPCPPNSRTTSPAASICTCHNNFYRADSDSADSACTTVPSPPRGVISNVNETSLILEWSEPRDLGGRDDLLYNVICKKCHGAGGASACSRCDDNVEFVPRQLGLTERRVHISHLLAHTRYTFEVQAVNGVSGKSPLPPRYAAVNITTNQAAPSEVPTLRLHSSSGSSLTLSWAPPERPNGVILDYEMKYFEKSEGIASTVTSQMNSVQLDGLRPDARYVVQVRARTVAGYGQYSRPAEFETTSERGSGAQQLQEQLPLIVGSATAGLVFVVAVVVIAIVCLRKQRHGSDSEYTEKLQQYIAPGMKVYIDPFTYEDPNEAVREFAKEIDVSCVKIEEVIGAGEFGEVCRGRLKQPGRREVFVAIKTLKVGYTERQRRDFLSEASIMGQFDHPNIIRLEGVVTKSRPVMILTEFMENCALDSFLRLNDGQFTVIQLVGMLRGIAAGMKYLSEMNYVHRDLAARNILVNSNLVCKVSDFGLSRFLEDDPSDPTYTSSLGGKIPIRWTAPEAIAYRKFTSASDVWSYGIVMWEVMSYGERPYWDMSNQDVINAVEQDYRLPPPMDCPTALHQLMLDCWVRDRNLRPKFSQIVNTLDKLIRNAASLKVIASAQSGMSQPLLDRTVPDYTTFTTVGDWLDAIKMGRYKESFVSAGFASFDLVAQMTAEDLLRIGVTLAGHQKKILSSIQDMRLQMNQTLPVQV

[8] = biological target: Ephrin type-A receptor 5 (Homo sapiens) (UniProt P54756)
Chain of Ephrin type-A receptor 5 (Homo sapiens) (P54756 whole entry): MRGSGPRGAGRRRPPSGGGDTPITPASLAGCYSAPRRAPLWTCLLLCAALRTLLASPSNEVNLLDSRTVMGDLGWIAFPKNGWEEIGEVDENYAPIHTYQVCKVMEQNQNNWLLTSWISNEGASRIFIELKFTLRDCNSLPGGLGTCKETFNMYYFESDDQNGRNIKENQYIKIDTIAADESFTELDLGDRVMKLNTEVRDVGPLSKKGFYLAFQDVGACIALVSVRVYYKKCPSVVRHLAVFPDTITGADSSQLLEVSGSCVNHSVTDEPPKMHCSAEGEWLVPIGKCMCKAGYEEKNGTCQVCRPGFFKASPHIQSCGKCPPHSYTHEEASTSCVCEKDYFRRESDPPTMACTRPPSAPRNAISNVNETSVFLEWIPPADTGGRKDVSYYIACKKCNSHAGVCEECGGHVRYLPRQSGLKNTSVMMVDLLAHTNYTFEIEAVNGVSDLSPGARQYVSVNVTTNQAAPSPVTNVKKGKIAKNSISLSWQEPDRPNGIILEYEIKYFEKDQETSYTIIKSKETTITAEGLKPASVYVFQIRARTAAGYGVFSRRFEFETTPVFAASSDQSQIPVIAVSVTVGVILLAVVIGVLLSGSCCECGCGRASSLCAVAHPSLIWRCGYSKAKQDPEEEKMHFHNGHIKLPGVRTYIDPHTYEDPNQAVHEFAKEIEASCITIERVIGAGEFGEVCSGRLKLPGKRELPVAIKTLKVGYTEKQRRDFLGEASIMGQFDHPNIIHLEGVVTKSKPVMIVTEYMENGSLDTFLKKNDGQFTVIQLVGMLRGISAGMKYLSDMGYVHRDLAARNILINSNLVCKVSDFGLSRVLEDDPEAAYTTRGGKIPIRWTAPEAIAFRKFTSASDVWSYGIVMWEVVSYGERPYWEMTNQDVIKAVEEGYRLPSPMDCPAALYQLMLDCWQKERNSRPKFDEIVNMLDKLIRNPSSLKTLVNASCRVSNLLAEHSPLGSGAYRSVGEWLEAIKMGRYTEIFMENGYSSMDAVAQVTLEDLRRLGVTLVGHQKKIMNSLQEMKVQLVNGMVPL
Description: Induction of stabilization of recombinant EPHA5 (unknown origin) assessed as change in melting temperature by differential scanning fluorimetry assay

[9] = biological target: T5, Fibroblast growth factor receptor 1 (Homo sapiens, UniProt P11362)
Target sequence in this assay (P11362 22-822 limits assumed): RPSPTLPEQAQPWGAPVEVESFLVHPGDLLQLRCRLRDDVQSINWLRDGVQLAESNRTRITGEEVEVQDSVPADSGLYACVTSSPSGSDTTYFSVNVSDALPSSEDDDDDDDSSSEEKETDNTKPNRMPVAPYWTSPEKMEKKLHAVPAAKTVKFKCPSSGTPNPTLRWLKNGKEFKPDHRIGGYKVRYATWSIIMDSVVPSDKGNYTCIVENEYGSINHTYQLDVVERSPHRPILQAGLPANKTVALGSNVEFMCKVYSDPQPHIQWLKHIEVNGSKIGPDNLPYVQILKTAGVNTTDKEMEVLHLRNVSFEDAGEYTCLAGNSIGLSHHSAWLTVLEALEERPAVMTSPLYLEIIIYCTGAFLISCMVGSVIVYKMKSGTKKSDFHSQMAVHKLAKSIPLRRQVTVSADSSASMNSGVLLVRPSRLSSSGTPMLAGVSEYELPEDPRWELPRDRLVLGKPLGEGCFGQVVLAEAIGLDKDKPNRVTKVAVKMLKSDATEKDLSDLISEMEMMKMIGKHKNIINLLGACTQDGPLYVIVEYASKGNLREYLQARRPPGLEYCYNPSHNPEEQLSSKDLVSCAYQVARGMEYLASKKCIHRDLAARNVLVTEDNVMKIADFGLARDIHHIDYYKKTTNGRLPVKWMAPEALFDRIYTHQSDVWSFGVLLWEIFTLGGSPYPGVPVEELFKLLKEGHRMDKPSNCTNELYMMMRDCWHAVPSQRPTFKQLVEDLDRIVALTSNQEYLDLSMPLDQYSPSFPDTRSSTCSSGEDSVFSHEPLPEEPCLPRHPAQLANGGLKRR
Description: Induction of stabilization of recombinant FGFR1 (unknown origin) assessed as change in melting temperature by differential scanning fluorimetry assay

[10] = Metabolic stability in Sprague-Dawley rat liver microsomes assessed as parent compound remaining at 10 uM measured after 60 min by HPLC analysis; assay type: ADME, Microsome; settings: read-out: Stability
[11] = Solubility of the compound measured after 24 hrs by HPLC/MS analysis; assay type: physicochemical
Ephrin type-A receptor 4 [12] = biological target: T3, Ephrin type-A receptor 4; assay: Inhibition of full length EPHA4 (unknown origin) expressed in HEK293T cells using NanoBRET NanoGlo substrate incubated for 2 hrs in presence of K4 tracer by NanoBRET assay; assay type: cell-based
[13] = biological target: T1, Vascular endothelial growth factor receptor 1; assay: Inhibition of full length FLT1 (unknown origin) expressed in HEK293T cells using NanoBRET NanoGlo substrate incubated for 2 hrs in presence of K9 tracer by NanoBRET assay; assay type: cell-based
[14] = biological target: Tyrosine-protein kinase ABL1 (Homo sapiens, UniProt P00519); assay: Inhibition of full length ABL1 (unknown origin) expressed in HEK293T cells using NanoBRET NanoGlo substrate incubated for 2 hrs in presence of K4 tracer by NanoBRET assay; assay type: cell-based
[15] = biological target: T5, Fibroblast growth factor receptor 1; assay: Inhibition of full length FGFR1 (unknown origin) expressed in HEK293T cells using NanoBRET NanoGlo substrate incubated for 2 hrs in presence of K10 tracer by NanoBRET assay; assay type: cell-based
Ephrin type-A receptor 2 [16] = biological target: T6, Ephrin type-A receptor 2 (Homo sapiens, UniProt P29317)
Description: Binding affinity to recombinant his tagged EPHA2 (D596 to G900 residues) (unknown origin) expressed in Escherichia coli rosetta BL21(D3)-R3-pRARE2 competent cells assessed as dissociation constant by surface plasmon resonance method

Ephrin type-A receptor 2 [17] = biological target: T6, Ephrin type-A receptor 2; remark: listed apart in the source
Description: Induction of stabilization of recombinant EPHA2 (D596 to G900 residues) (unknown origin) expressed in Escherichia coli rosetta BL21(D3)-R3-pRARE2 competent cells assessed as change in melting temperature by differential scanning fluorimetry assay

[18] = biological target: T7, Cyclin-G-associated kinase (Homo sapiens) (UniProt O14976)
T7 sequence (whole entry): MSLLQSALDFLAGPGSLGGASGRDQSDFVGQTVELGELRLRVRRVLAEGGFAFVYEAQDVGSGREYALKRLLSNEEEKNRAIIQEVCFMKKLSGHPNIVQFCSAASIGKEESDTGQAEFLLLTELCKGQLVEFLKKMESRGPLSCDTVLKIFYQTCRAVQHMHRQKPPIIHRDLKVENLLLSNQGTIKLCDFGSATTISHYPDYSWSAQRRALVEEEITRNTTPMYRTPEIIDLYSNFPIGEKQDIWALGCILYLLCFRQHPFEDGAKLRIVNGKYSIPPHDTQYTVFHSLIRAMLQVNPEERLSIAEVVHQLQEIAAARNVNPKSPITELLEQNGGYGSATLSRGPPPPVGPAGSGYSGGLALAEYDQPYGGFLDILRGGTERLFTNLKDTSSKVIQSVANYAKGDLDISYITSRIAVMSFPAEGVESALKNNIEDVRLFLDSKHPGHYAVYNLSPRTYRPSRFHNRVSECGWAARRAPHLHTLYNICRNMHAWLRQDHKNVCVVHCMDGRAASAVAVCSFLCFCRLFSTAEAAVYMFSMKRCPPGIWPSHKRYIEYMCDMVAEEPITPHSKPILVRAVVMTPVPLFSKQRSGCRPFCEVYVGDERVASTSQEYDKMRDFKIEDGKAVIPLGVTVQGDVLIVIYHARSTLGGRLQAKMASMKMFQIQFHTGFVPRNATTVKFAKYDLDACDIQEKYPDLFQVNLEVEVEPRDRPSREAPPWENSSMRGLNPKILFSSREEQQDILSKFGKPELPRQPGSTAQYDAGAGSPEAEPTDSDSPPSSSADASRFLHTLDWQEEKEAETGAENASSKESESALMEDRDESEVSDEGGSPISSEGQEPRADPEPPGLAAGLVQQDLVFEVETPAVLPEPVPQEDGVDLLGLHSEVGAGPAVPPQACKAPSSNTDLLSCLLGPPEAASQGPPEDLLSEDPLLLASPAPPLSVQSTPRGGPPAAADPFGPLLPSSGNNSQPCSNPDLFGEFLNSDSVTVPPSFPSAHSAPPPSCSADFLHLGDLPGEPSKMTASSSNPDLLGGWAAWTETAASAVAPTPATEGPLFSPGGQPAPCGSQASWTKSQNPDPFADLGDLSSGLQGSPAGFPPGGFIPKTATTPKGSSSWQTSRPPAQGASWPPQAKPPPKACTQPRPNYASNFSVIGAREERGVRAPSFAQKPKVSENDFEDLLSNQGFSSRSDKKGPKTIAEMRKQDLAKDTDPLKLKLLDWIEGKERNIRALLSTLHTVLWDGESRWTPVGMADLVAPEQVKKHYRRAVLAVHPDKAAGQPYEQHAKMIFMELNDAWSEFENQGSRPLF
Description: Induction of stabilization of recombinant GAK (unknown origin) assessed as change in melting temperature by differential scanning fluorimetry assay

SMILES	EC50 (dengue virus type 2) [µM]	EC90 (dengue virus type 2) [µM]	deltaTm [1] [K]	deltaTm [3] [K]	deltaTm [4] [K]	deltaTm [5] [K]	deltaTm (Ephrin type-A receptor 4 [6]) [K]	CC50 (Huh-7) [µM]	deltaTm [7] [K]	deltaTm [8] [K]	deltaTm [9] [K]	also measured
COc1cc(-c2cnc3nc2NCCCNS(=O)(=O)c2cccc(c2)N3)ccc1F	> 10	> 10	6.3	0.3	4.4	4.3	3.6	> 10	5.6	5.4	3.3	half-life at 10 µM [2]: 6.6 h
COc1cc(-c2cnc3nc2NCCCNS(=O)(=O)c2cccc(c2)N3)ccc1Br	5.3	9.8	2.6	0.1	2.4	2.8	3.2	> 10	4	5	1.8	remaining at 1 h, 10 µM [10]: 87%; half-life at 10 µM [2]: 4.6 h; solubility at 24 h [11]: 2.24 µg/mL (≈ 4.57 µM)
O=C(Nc1ccccc1Cl)c1cnc2ccc(C3CCNCC3)cn12	6.5	> 10	–	–	–	–	–	> 10	–	–	–	EC50 (Ephrin type-A receptor 4 [12]): 0.048 µM; EC50 [13]: > 50 µM; EC50 [14]: 49 µM; EC50 [15]: > 50 µM
CCNc1nc(Nc2cccc(S(=O)(=O)NC)c2)ncc1-c1ccc(F)c(OC)c1	–	–	–	–	–	–	–	–	–	–	–	Kd (Ephrin type-A receptor 2 [16]): Not Active; deltaTm (Ephrin type-A receptor 2 [17]): 4.2 K
COCCOc1ccc2cc1S(=O)(=O)NCCCNc1nc(ncc1-c1ccc(F)c(OC)c1)N2	> 10	> 10	1.8	1	4.5	2.6	4.5	> 10	3.1	5.4	2.5	–
COc1cc(-c2cnc3nc2NCCCNS(=O)(=O)c2cc(ccc2OC)N3)ccc1F	> 10	> 10	1.3	1	3.4	3.1	4.4	> 10	1.6	4.7	2	–
O=S1(=O)NCCCNc2nc(ncc2-c2cc(Cl)c(F)cc2F)Nc2cccc1c2	–	–	4.3	0.1	4.7	3.3	3.2	–	4.3	5.7	3.1	deltaTm [18]: 5.8 K; deltaTm (Ephrin type-A receptor 2 [17]): 7.5 K
